From US20240148679A1, “METHODS AND COMPOSITIONS RELATED TO TREATMENT AND PREVENTION OF CANCER BY INHIBITION OF DGAT1 AND DGAT2” (Ohio State Innovation Foundation, priority 2019, published 2024)

Test system: GBM cells
Assay: Lipid droplet (BODIPY 493/503) number and TG (TLC) levels in GBM cells
Format: cell-based, human
Conditions: 24 hours; for LDs/TG levels: concurrently inhibiting DGAT1 and DGAT2 (A-922500 + PF-06424439), vs DGAT1 inhibition alone; for number of LDs and levels of TG: single inhibitor, 20 μg/ml, all examined GBM cells
Procedure: (A) RT-qPCR analysis of DGAT1 vs. DGAT2 mRNA expression in GBM cells (U251 and GBM30) and in liver cancer cell line (HepG2). The results are shown as mean±SD (n=3). Statistical significance was determined by a paired Student's t-test. *P<0.01; n.s., not significant. (B) Representative fluorescence imaging of LDs stained with BODIPY 493/503 (green) (upper panels) and TLC analysis of TG levels (lower panels) in GBM and liver cancer cells after treatments with the DGAT1 inhibitor A-922500 (20 μg/ml) or DGAT2 inhibitor PF-06424439 ([…]) alone or in combination for 24 hr. Nuclei were stained with Hoechst 33342 (blue). Scale bar, 10 m. LDs were quantified by the ImageJ software in more than 30 cells in each treatment group (mean±SEM). TG levels were quantified by the ImageJ software and normalized to the untreated control group (mean±SD, n=3). Statistical significance was determined by one-way ANOVA. * P<0.001; #P<0.05. (C) Percentage of dead GBM or liver cancer cells after treatment with DGAT1 or DGAT2 inhibitors alone or in combination for 3 days as in panel B. Live and dead cells were counted after trypan blue staining (mean SD, n=3). Statistical significance was determined by one-way ANOVA. * P<0.0001. (D) Western blot analysis of DGAT1 expression in membrane extracts from GBM and liver cancer cells after infection with shRNA-expressing lentivirus against DGAT1 for 48 hr. […] Statistical significance was determined by one-way ANOVA. * P<0.01. (F) Representative fluorescence images of LDs stained with BODIPY 493/503 (upper panels) and TLC analysis of TG levels (lower panels) in GBM and liver cancer cells after lentivirus-mediated shRNA knockdown of DGAT1 or DGAT2 alone or in combination for 48 hr. […] Quantification and significance analysis of LDs and TG levels in different groups were the same as in panel B. * P<0.001; #P<0.05. […] Cell death percentage and significance were determined as in panel c (mean±SD, n=3). *P<0.0001; #P<0.001.
(A) RT-qPCR analysis of DGAT1 vs. DGAT2 mRNA levels in different types of cancer cell lines using 3 pairs of different primers. […] Statistical significance was determined by Student's t-test. *P<0.01. (B) Representative fluorescence imaging of LDs stained with BODIPY 493/503 (green) (upper panels) and TLC analysis of TG levels (lower panels) in GBM cells after treatment with the DGAT1 inhibitor A-922500 (20 μg/ml) or DGAT2 inhibitor PF-06424439 (20 μg/ml) for 24 hr. […] LDs were quantified by the ImageJ software in more than 30 cells in each treatment group (mean±SEM). TG levels were quantified by the ImageJ software and normalized to control group (mean±SD, n=3). Statistical significance was determined by one-way ANOVA. *P<0.001; #P<0.05. […] Statistical significance was determined by one-way ANOVA. *P<0.001. […]

## O=C(Nc1ccccc1)Nc1ccc(-c2ccc(C(=O)[C@@H]3CCC[C@H]3C(=O)O)cc2)cc1 [A-922500]
  LDs/TG levels: did not result in further reduction
  number of LDs and levels of TG: dramatically reduced the number of LDs

## CS(=O)(=O)O.O=C([C@@H]1CCCN(c2ccc3[nH]c(C4(n5cc(Cl)cn5)CC4)nc3n2)C1)N1CCCC1 [PF-06424439]
  LDs/TG levels: did not result in further reduction
  number of LDs and levels of TG: minor reduction
